Test results reported in patent US20040076974A1, “Liver necrosis predictive genes” (priority 2002, published 2004).
Values joined by “and” are separate entries in the source; they are usually repeats but may differ in a detail not shown here. Identical values can stand only once. Like-named read-outs stand apart in the source and are kept apart here.

What was measured:
[1] = system: toxicologically relevant rat genes (rat CT array)
Sprague Dawley rats = settings: rat; for Score (histopathology liver necrosis severity score): Sprague Dawley, 72 h; for Score (histopathology liver necrosis severity score) / Liver Necrosis: ip
Description: Sprague Dawley rats Crl:CD from Charles River, Raleigh, N.C. were divided into treated rats that receive a specific concentration of the compound (see Table 1) and. control rats that only received the vehicle in which the compound is mixed (e.g., saline).
At specified timepoints (6 h, 24 h and 72 h) after administration (intraperitoneal route) of the compound, a set number of rats (usually 3 control and 3 treated) were euthanized and tissues collected. Each, rat was heavily sedated with an overdose of CO2 by inhalation and a maximum amount of blood drawn. Exsanguination of the rat by this drawing of blood kills the rat. The method of collecting the tissues is very important and ensures preserving the quality of the mRNA in the tissues. The body of the rat was then opened up and prosectors rapidly removed the tissues (including) and immediately placed them into liquid nitrogen. […] The organs/tissues were then packaged into well-labeled plastic freezer quality bags and stored at −80 degrees until needed for isolation of the mRNA from a portion of the organ/tissue sample.
Histopathology scores for each animal (assigned on a compound-dose basis as indicated in Table 1) were entered with gene expression data by using the GeneSpring™ ‘Drawn Gene’ function. Correlations between the histopathology scores and gene expression were conducted with the distance measures listed below:
Toxicity classifications were entered for training and test set as a parameter column. Toxicity, as defined by observation of necrosis in the at 72 hours after treatment, was entered as a “yes” or “no” for each animal in a compound-dose group. Additionally, a parameter column for random histopathology classification was designated. This was done by randomly assigning the same number of “yes” and “no” calls to the individual animals.

[2] = 24 h, dose 1000, listed as APAP

CC(=O)Nc1ccc(O)cc1 [acetaminophen]
Aflatoxin B1 aldehyde reductase expression (treatment/control) ([1]; 24 h): 3.687 and 4.607 and 5.763
3-hydroxyisobutyrate dehydrogenase expression (treatment/control) [1, 2]: 0.8093 and 0.6875 and 0.5181
14-3-3 zeta expression (treatment/control) [1, 2]: 1.279 and 1.34 and 2.193
25-DX expression (treatment/control) [1, 2]: 1.304 and 1.667 and 1.897
60S ribosomal protein L6 expression (treatment/control) [1, 2]: 1.31 and 2.123 and 2.39
Alpha 1 - inhibitor III expression (treatment/control) [1, 2]: 0.4712 and 0.4696 and 0.2941
Alpha-2-macroglobulin expression (treatment/control) [1, 2]: 0.5487 and 0.4873 and 0.3551
Apolipoprotein CIII expression (treatment/control) [1, 2]: 0.702 and 0.753 and 0.464
Bax (alpha) expression (treatment/control) [1, 2]: 1.285 and 1.306 and 1.621
Calpactin I heavy chain expression (treatment/control) [1, 2]: 1.347 and 1.282 and 1.692
Carbamyl phosphate synthetase I expression (treatment/control) [1, 2]: 0.7736 and 0.7076 and 0.6953
Carbonyl reductase expression (treatment/control) [1, 2]: 1.218 and 1.144 and 1.992
Cofilin expression (treatment/control) [1, 2]: 0.9081 and 0.9679 and 1.261
DNA polymerase beta expression (treatment/control) [1, 2]: 0.8811 and 1.223 and 1.54
Elongation factor-1 alpha expression (treatment/control) [1, 2]: 1.174 and 1.533 and 1.746
Endogenous retroviral sequence, 5′ and 3′ LTR expression (treatment/control) [1, 2]: 1.114 and 1.112 and 1.648
Enolase alpha expression (treatment/control) [1, 2]: 1.382 and 2.619 and 2.308
Epidermal growth factor expression (treatment/control) [1, 2]: 0.7557 and 0.7312 and 0.6935
Extracellular-signal-regulated kinase 1 expression (treatment/control) [1, 2]: 0.452 and 0.4073 and 0.261
Fas antigen expression (treatment/control) [1, 2]: 1.77 and 1.618 and 2.162
Gadd153 expression (treatment/control) [1, 2]: 1.15 and 1.234 and 2.2302
Glucose-regulated protein 78 expression (treatment/control) [1, 2]: 1.949 and 2.017 and 1.914
Hepatic lipase expression (treatment/control) [1, 2]: 0.5231 and 0.4276 and 0.3047
ID-1 expression (treatment/control) [1, 2]: 1.004 and 1.038 and 1.388
IgE binding protein expression (treatment/control) [1, 2]: 1.117 and 1.131 and 1.528
IkB-a expression (treatment/control) [1, 2]: 1.268 and 1.662 and 1.76
Insulin-like growth factor binding protein 3 expression (treatment/control) [1, 2]: 0.5707 and 0.5952 and 0.4059
Liver fatty acid binding protein expression (treatment/control) [1, 2]: 0.4243 and 0.4268 and 0.229
MAP kinase kinase expression (treatment/control) [1, 2]: 1.017 and 1.243 and 1.361
Macrophage inflammatory protein-1 alpha expression (treatment/control) [1, 2]: 1.158 and 1.138 and 1.685
Matrix metalloproteinase-1 expression (treatment/control) [1, 2]: 1.41 and 1.586 and 2.447
Melanoma-associated antigen ME491 expression (treatment/control) [1, 2]: 1.011 and 1.114 and 1.656
Monocyte chemotactic protein receptor (CCR2) expression (treatment/control) [1, 2]: 1.194 and 1.282 and 1.728
NADPH quinone oxidoreductase-1 (DT-diaphorase) expression (treatment/control) [1, 2]: 2.511 and 2.716 and 4.842
Nucleoside diphosphate kinase beta isoform expression (treatment/control) [1, 2]: 1.516
Organic anion transporter 3 expression (treatment/control) [1, 2]: 0.7554 and 0.5816 and 0.5461
Organic cation transporter 3 expression (treatment/control) [1, 2]: 1.215 and 1.663 and 2.064
Ornithine decarboxylase expression (treatment/control) [1, 2]: 1.918 and 2.163 and 3.092
Phase-1 RCT 252 expression (treatment/control) [1, 2]: 0.7905 and 0.6256
Phase-1 RCT-12 expression (treatment/control) [1, 2]: 1.884
Phase-1 RCT-33 expression (treatment/control) [1, 2]: 0.7278 and 0.4867
Phase-1 RCT-36 expression (treatment/control) [1, 2]: 0.9342 and 0.7084
Phase-1 RCT-37 expression (treatment/control) [1, 2]: 1.525 and 1.704
Phase-1 RCT-38 expression (treatment/control) [1, 2]: 0.8079 and 0.6659 and 0.4284
Phase-1 RCT-40 expression (treatment/control) [1, 2]: 0.3766
Phase-1 RCT-48 expression (treatment/control) [1, 2]: 0.6762 and 0.5881
Phase-1 RCT-65 expression (treatment/control) [1, 2]: 1.498
Phase-1 RCT-68 expression (treatment/control) [1, 2]: 2.006
Phase-1 RCT-72 expression (treatment/control) [1, 2]: 1.676
Phase-1 RCT-78 expression (treatment/control) [1, 2]: 0.6314 and 0.4384
Phase-1 RCT-83 expression (treatment/control) [1, 2]: 0.6151 and 0.4373 and 0.3263
Phase-1 RCT-88 expression (treatment/control) [1, 2]: 0.5934 and 0.6891 and 0.4014
Phase-1 RCT-92 expression (treatment/control) [1, 2]: 0.6478 and 0.6327 and 0.3995
Phase-1 RCT-102 expression (treatment/control) [1, 2]: 0.4854 and 0.3992 and 0.2737
Phase-1 RCT-109 expression (treatment/control) [1, 2]: 2.054 and 2.291
Phase-1 RCT-123 expression (treatment/control) [1, 2]: 0.983
Phase-1 RCT-127 expression (treatment/control) [1, 2]: 0.99 and 1.472
Phase-1 RCT-137 expression (treatment/control) [1, 2]: 0.72 and 0.8264 and 0.5868
Phase-1 RCT-145 expression (treatment/control) [1, 2]: 1.2 and 1.522 and 2.335
Phase-1 RCT-152 expression (treatment/control) [1, 2]: 1.202 and 1.996 and 2.355
Phase-1 RCT-154 expression (treatment/control) [1, 2]: 2.226
Phase-1 RCT-162 expression (treatment/control) [1, 2]: 1.476
Phase-1 RCT-168 expression (treatment/control) [1, 2]: 0.7401 and 0.471
Phase-1 RCT-180 expression (treatment/control) [1, 2]: 1.523 and 1.839
Phase-1 RCT-181 expression (treatment/control) [1, 2]: 0.6749
Phase-1 RCT-185 expression (treatment/control) [1, 2]: 0.5075 and 0.4368 and 0.3225
Phase-1 RCT-191 expression (treatment/control) [1, 2]: 1.498 and 2.514
Phase-1 RCT-192 expression (treatment/control) [1, 2]: 1.606 and 1.812
Phase-1 RCT-205 expression (treatment/control) [1, 2]: 1.793
Phase-1 RCT-213 expression (treatment/control) [1, 2]: 1.607 and 2.134
Phase-1 RCT-214 expression (treatment/control) [1, 2]: 0.7129 and 0.7249 and 0.4326
Phase-1 RCT-242 expression (treatment/control) [1, 2]: 1.936
Phase-1 RCT-258 expression (treatment/control) [1, 2]: 1.198 and 1.289 and 1.628
Phase-1 RCT-264 expression (treatment/control) [1, 2]: 0.4839 and 0.3686
Phase-1 RCT-271 expression (treatment/control) [1, 2]: 0.5952
Phase-1 RCT-295 expression (treatment/control) [1, 2]: 1.409 and 1.586 and 1.993
Phase-1 RCT-296 expression (treatment/control) [1, 2]: 0.4087 and 0.2215 and 0.347
Pyruvate kinase, muscle expression (treatment/control) [1, 2]: 1.015 and 0.9969 and 1.833
Ref-1 expression (treatment/control) [1, 2]: 1.85 and 2.112 and 3.617
Ribosomal protein L13A expression (treatment/control) [1, 2]: 2.348 and 2.582
Ribosomal protein S8 expression (treatment/control) [1, 2]: 1.864 and 2.055
Sodium/bile acid cotransporter expression (treatment/control) [1, 2]: 0.7685 and 0.5902 and 0.8858
Superoxide dismutase Mn expression (treatment/control) [1, 2]: 1.274 and 1.178 and 1.931
T-cell cyclophilin expression (treatment/control) [1, 2]: 0.8846 and 1.322 and 1.491
Thymosin beta-10 expression (treatment/control) [1, 2]: 1.285 and 1.383 and 1.788
Transthyretin expression (treatment/control) [1, 2]: 0.427 and 0.4938 and 0.34
Ubiquitin conjugating enzyme (RAD 6 homologue) expression (treatment/control) [1, 2]: 0.9549 and 1.282 and 1.558
Uncoupling protein 2 expression (treatment/control) [1, 2]: 1.201 and 1.111 and 1.462
c-H-ras expression (treatment/control) [1, 2]: 1.118 and 1.069 and 0.9092
p53 expression (treatment/control) [1, 2]: 0.8979 and 1.176 and 1.584
{Ribosomal protein L6} expression (treatment/control) [1, 2]: 1.978 and 2.321
Multidrug resistant protein-1 expression (treatment/control) ([1]; rat, in vivo): 1.241 and 1.202 and 1.889
Paraoxonase 1 expression (treatment/control) ([1]; rat, in vivo): 0.5292 and 0.4965 and 0.3855
Score (histopathology liver necrosis severity score) (Sprague Dawley rats; in vivo, 250 mg/kg): 1
Score (histopathology liver necrosis severity score) (Sprague Dawley rats; in vivo, 1000 mg/kg): 2
toxicity at the high dose (Sprague Dawley rats; in vivo): produced toxicity
Liver Necrosis (Sprague Dawley rats; in vivo, 250 mg/kg): no
Liver Necrosis (Sprague Dawley rats; in vivo, 1000 mg/kg): Yes
toxicity at the low dose (Sprague Dawley rats; low dose of Table 1, liver necrosis at 72 hours): not at the low dose
